Measured values as given in the NIST ThermoML archive (doi:10.1021/je901067c).

How the values were obtained:
[1] = xn = mol fraction of the nth substance listed; details: 101 kPa, Liquid; for viscosity: Capillary tube (Ostwald / Ubbelohde) method
[2] = refractive index (Na D-line) (dimensionless); xn = mol fraction of the nth substance listed; details: 101 kPa, Liquid, Standard Abbe refractometry

CCC(O)CC [3-pentanol] + CCC(C)=O
Details | mass density, 298.15 K [kg/m3] | mass density, 308.15 K [kg/m3] | mass density, 318.15 K [kg/m3] | refractive index, 298.15 K | refractive index, 308.15 K | refractive index, 318.15 K | viscosity, 298.15 K [mPa·s] | viscosity, 308.15 K [mPa·s] | viscosity, 318.15 K [mPa·s]
[1], x2 = 0 | 815.79 | 806.91 | 797.66 | – | – | – | 4.625 | 2.864 | 1.902
[1], x2 = 0.0843 | 813.43 | 804.58 | 795.034 | – | – | – | 2.842 | 1.965 | 1.382
[1], x2 = 0.1622 | 811.5 | 802.6 | 792.888 | – | – | – | 2.007 | 1.476 | 0.9911
[1], x2 = 0.2428 | 809.72 | 800.57 | 790.723 | – | – | – | 1.494 | 1.151 | 0.7246
[1], x2 = 0.3505 | 807.45 | 798.07 | 788.175 | – | – | – | 1.084 | 0.869 | 0.5197
[1], x2 = 0.4415 | 805.82 | 796.23 | 786.285 | – | – | – | 0.86 | 0.717 | 0.417
[1], x2 = 0.5584 | 803.92 | 794.1 | 784.161 | – | – | – | 0.677 | 0.578 | 0.3306
[1], x2 = 0.6526 | 802.64 | 792.64 | 782.699 | – | – | – | 0.591 | 0.506 | 0.2938
[1], x2 = 0.7399 | 801.72 | 791.55 | 781.619 | – | – | – | 0.508 | 0.448 | 0.2919
[1], x2 = 0.854 | 800.8 | 790.31 | 780.165 | – | – | – | 0.445 | 0.396 | 0.297
[1], x2 = 0.9383 | 800.16 | 789.7 | 779.212 | – | – | – | 0.407 | 0.365 | 0.3106
[2], x2 = 0 | – | – | – | 1.4047 | 1.4029 | 1.3981 | – | – | –
[2], x2 = 0.0843 | – | – | – | 1.4032 | 1.4012 | 1.3965 | – | – | –
[2], x2 = 0.1622 | – | – | – | 1.4016 | 1.3995 | 1.3949 | – | – | –
[2], x2 = 0.2428 | – | – | – | 1.3999 | 1.3975 | 1.3929 | – | – | –
[2], x2 = 0.3505 | – | – | – | 1.3971 | 1.3944 | 1.3901 | – | – | –
[2], x2 = 0.4415 | – | – | – | 1.3945 | 1.3916 | 1.3873 | – | – | –
[2], x2 = 0.5584 | – | – | – | 1.3908 | 1.3876 | 1.3835 | – | – | –
[2], x2 = 0.6526 | – | – | – | 1.3876 | 1.3841 | 1.38 | – | – | –
[2], x2 = 0.7399 | – | – | – | 1.3846 | 1.3806 | 1.3767 | – | – | –
[2], x2 = 0.854 | – | – | – | 1.3803 | 1.376 | 1.372 | – | – | –
[2], x2 = 0.9383 | – | – | – | 1.3773 | 1.3725 | 1.3684 | – | – | –
